ChEMBL document CHEMBL3885861, “Open TG-GATES”

Organism: Rattus norvegicus
Assay: Open TG-GATES - Regimen: Single
Assay type: toxicity, organism-based, Sprague-Dawley
Parameters: regimen Single, gender Male, age 6 weeks
Settings: in vivo, po, 500 mg/kg, route gavage, dose level High; for APTT / Bas / Eos / Fbg / Hb / Ht / Lym / MCH / MCHC / MCV / Mono / Neu / PT / Plat / RBC / Ret / WBC: tissue Blood; for KIDNEY_L / KIDNEY_R / KIDNEY_TOTAL: tissue Kidney; for LIVER: tissue Liver; for A/G / ALP / ALT / AST / BUN / CRE / Ca / Cl / DBIL / GLC / IP / K / LDH / Na / PL / RALB / TBIL / TC / TG / TP / gamma-GTP: tissue Plasma

CN1C(=O)CCS(=O)(=O)C1c1ccc(Cl)cc1 (configuration not stated) [CHLORMEZANONE]
TERMINAL_BW (3 h): 225.7 g | APTT (3 h): 17.2 s | Bas (3 h): 0% | Eos (3 h): 1% | Fbg (3 h): 308.4 mg/dL | Hb (3 h): 13.4 g/dL | Ht (3 h): 40.2% | Lym (3 h): 72.8% | MCH (3 h): 21.9 pg | MCHC (3 h): 33.4% | MCV (3 h): 65.4 fL | Mono (3 h): 3.8% | Neu (3 h): 21.8% | PT (3 h): 13.2 s | Plat (3 h): 113.8 x10_4/uL | RBC (3 h): 614.4 x10_4/ul | Ret (3 h): 8.6% | WBC (3 h): 42.6 x10_2/uL | KIDNEY_L (3 h): 1 g | KIDNEY_R (3 h): 1 g | KIDNEY_TOTAL (3 h): 2 g | LIVER (3 h): 9.8 g | A/G (3 h): 0.9 | ALP (3 h): 1556.6 IU/L | ALT (3 h): 41.2 IU/L | AST (3 h): 63.6 IU/L | BUN (3 h): 9.6 mg/dL | CRE (3 h): 0.1 mg/dL | Ca (3 h): 10.8 mg/dL | Cl (3 h): 102 meq/L | DBIL (3 h): 0.012 mg/dL | GLC (3 h): 212.4 mg/dL | IP (3 h): 10.3 mg/dL | K (3 h): 3.9 meq/L | LDH (3 h): 54.2 IU/L | Na (3 h): 140.8 meq/L | PL (3 h): 145 mg/dL | RALB (3 h): 2.5 g/dL | TBIL (3 h): 0.038 mg/dL | TC (3 h): 76.4 mg/dL | TG (3 h): 63.6 mg/dL | TP (3 h): 5.3 g/dL | gamma-GTP (3 h): 1 IU/L | TERMINAL_BW (6 h): 226.3 g | APTT (6 h): 16.7 s | Bas (6 h): 0% | Eos (6 h): 1% | Fbg (6 h): 340.6 mg/dL | Hb (6 h): 13.2 g/dL | Ht (6 h): 39.2% | Lym (6 h): 72.6% | MCH (6 h): 21.2 pg | MCHC (6 h): 33.8% | MCV (6 h): 62.7 fL | Mono (6 h): 2.6% | Neu (6 h): 23.4% | PT (6 h): 13.6 s | Plat (6 h): 111.4 x10_4/uL | RBC (6 h): 625.4 x10_4/ul | Ret (6 h): 8.1% | WBC (6 h): 28.5 x10_2/uL | KIDNEY_L (6 h): 0.9 g | KIDNEY_R (6 h): 0.9 g | KIDNEY_TOTAL (6 h): 1.9 g | LIVER (6 h): 9.9 g | A/G (6 h): 0.9 | ALP (6 h): 1317.4 IU/L | ALT (6 h): 44 IU/L | AST (6 h): 66.8 IU/L | BUN (6 h): 8 mg/dL | CRE (6 h): 0.1 mg/dL | Ca (6 h): 10.8 mg/dL | Cl (6 h): 101.2 meq/L | DBIL (6 h): 0.006 mg/dL | GLC (6 h): 218.4 mg/dL | IP (6 h): 10.6 mg/dL | K (6 h): 3.6 meq/L | LDH (6 h): 56.4 IU/L | Na (6 h): 139.6 meq/L | PL (6 h): 160 mg/dL | RALB (6 h): 2.5 g/dL | TBIL (6 h): 0.03 mg/dL | TC (6 h): 93.2 mg/dL | TG (6 h): 39.6 mg/dL | TP (6 h): 5.4 g/dL | gamma-GTP (6 h): 1 IU/L | TERMINAL_BW (9 h): 229 g | APTT (9 h): 16.4 s | Bas (9 h): 0% | Eos (9 h): 0.6% | Fbg (9 h): 317.8 mg/dL | Hb (9 h): 13.4 g/dL | Ht (9 h): 39.2% | Lym (9 h): 68.8% | MCH (9 h): 21.9 pg | MCHC (9 h): 34.2% | MCV (9 h): 64 fL | Mono (9 h): 2.8% | Neu (9 h): 27.6% | PT (9 h): 13.6 s | Plat (9 h): 127.7 x10_4/uL | RBC (9 h): 613 x10_4/ul | Ret (9 h): 8.1% | WBC (9 h): 40.7 x10_2/uL | KIDNEY_L (9 h): 1 g | KIDNEY_R (9 h): 1 g | KIDNEY_TOTAL (9 h): 1.9 g | LIVER (9 h): 10.1 g | A/G (9 h): 0.9 | ALP (9 h): 1555.8 IU/L | ALT (9 h): 39.8 IU/L | AST (9 h): 66 IU/L | BUN (9 h): 10 mg/dL | CRE (9 h): 0.1 mg/dL | Ca (9 h): 11 mg/dL | Cl (9 h): 100.4 meq/L | DBIL (9 h): 0.014 mg/dL | GLC (9 h): 255.4 mg/dL | IP (9 h): 10.3 mg/dL | K (9 h): 3.8 meq/L | LDH (9 h): 66.4 IU/L | Na (9 h): 139 meq/L | PL (9 h): 165.8 mg/dL | RALB (9 h): 2.6 g/dL | TBIL (9 h): 0.034 mg/dL | TC (9 h): 90.6 mg/dL | TG (9 h): 89.8 mg/dL | TP (9 h): 5.5 g/dL | gamma-GTP (9 h): 1.2 IU/L | TERMINAL_BW (24 h): 214.2 g | APTT (24 h): 21.3 s | Bas (24 h): 0% | Eos (24 h): 0.6% | Fbg (24 h): 258.6 mg/dL | Hb (24 h): 14.2 g/dL | Ht (24 h): 40.4% | Lym (24 h): 73.4% | MCH (24 h): 21.7 pg | MCHC (24 h): 35.2% | MCV (24 h): 61.9 fL | Mono (24 h): 4% | Neu (24 h): 21.8% | PT (24 h): 14.3 s | Plat (24 h): 121 x10_4/uL | RBC (24 h): 653.6 x10_4/ul | Ret (24 h): 7.3% | WBC (24 h): 73.2 x10_2/uL | KIDNEY_L (24 h): 0.9 g | KIDNEY_R (24 h): 0.9 g | KIDNEY_TOTAL (24 h): 1.9 g | LIVER (24 h): 9.7 g | A/G (24 h): 0.8 | ALP (24 h): 1746 IU/L | ALT (24 h): 46.2 IU/L | AST (24 h): 89.6 IU/L | BUN (24 h): 14.2 mg/dL | CRE (24 h): 0.2 mg/dL | Ca (24 h): 11.2 mg/dL | Cl (24 h): 104.6 meq/L | DBIL (24 h): 0.048 mg/dL | GLC (24 h): 193.2 mg/dL | IP (24 h): 8 mg/dL | K (24 h): 3.9 meq/L | LDH (24 h): 113 IU/L | Na (24 h): 142 meq/L | PL (24 h): 146.2 mg/dL | RALB (24 h): 2.6 g/dL | TBIL (24 h): 0.058 mg/dL | TC (24 h): 69.6 mg/dL | TG (24 h): 239.2 mg/dL | TP (24 h): 5.8 g/dL | gamma-GTP (24 h): 1 IU/L
